# Results as given in paper PMC10101059, “Rational Design of Stapled Antimicrobial Peptides to Enhance Stability and In Vivo Potency against Polymicrobial Sepsis” (Microbiology Spectrum, 2023).
# Bridge positions count the residues as written; N and C are the ends. Square brackets hold non-standard residues; d marks the D form. Peptide text beside a SMILES is read from it. R5 = C=CCCC[C@@](C)(N)C(=O)O
# Legend:
# MDR A. baumannii 1702 = test: microbe, parasite or virus in culture; type: cell-based, Acinetobacter baumannii; conditions: MDR 1702
# Protocol: (§1) The antimicrobial assay was performed according to a modified National Committee for Clinical Laboratory Standards (NCCLS) protocol ([41], [42]). Briefly, 5 × 10^5 CFU/mL bacterial cells were treated with various peptide concentrations and incubated at 37 ± 2°C for 16 to 20 h. The lowest concentration with clear wells was recorded as the MIC for each test molecule. The clear wells were further plated in Mueller-Hinton agar (MHA) plates, followed by incubation overnight at 37 ± 2°C. After plating, the lowest concentration at which no growth was observed was recorded as the MBC. For the serum sensitivity assay, the antimicrobial activity of the peptides was tested in medium containing 50% human serum ([43], [44]).
# MDR A. baumannii 2982 = test: microbe, parasite or virus in culture; type: cell-based, Acinetobacter baumannii; conditions: MDR 2982
# Protocol: as §1
# MDR A. baumannii 921 = test: microbe, parasite or virus in culture; type: cell-based, Acinetobacter baumannii; conditions: MDR 921
# Protocol: as §1
# MDR A. baumannii 2962 = test: microbe, parasite or virus in culture; type: cell-based, Acinetobacter baumannii; conditions: MDR 2962
# Protocol: as §1
# MDR A. baumannii 1019 = test: microbe, parasite or virus in culture; type: cell-based, Acinetobacter baumannii; conditions: MDR 1019
# Protocol: as §1
# MDR A. baumannii 1607 = test: microbe, parasite or virus in culture; type: cell-based, Acinetobacter baumannii; conditions: MDR 1607
# Protocol: as §1
# MDR A. baumannii 2088 [1] = test: microbe, parasite or virus in culture; type: cell-based, Acinetobacter baumannii; conditions: MDR 2088; read-out: MBC
# Protocol: as §1
# MDR A. baumannii 14B0091 = test: microbe, parasite or virus in culture; type: cell-based, Acinetobacter baumannii; conditions: MDR 14B0091
# Protocol: as §1
# MDR A. baumannii 3618 [2] = test: microbe, parasite or virus in culture; type: cell-based, Acinetobacter baumannii; conditions: MDR 3618
# Protocol: as §1
# MDR A. baumannii 1033 [3] = test: microbe, parasite or virus in culture; type: cell-based, Acinetobacter baumannii; conditions: MDR 1033
# Protocol: as §1
# MDR A. baumannii 2997 [4] = test: microbe, parasite or virus in culture; type: cell-based, Acinetobacter baumannii; conditions: MDR 2997
# Protocol: as §1
# MDR A. baumannii 2998 [5] = test: microbe, parasite or virus in culture; type: cell-based, Acinetobacter baumannii; conditions: MDR 2998; read-out: MBC
# Protocol: as §1
# S enterica = test: Checkerboard microdilution assay (FICI); type: cell-based, Salmonella enterica; conditions: MIC of each agent in combination, TP4-3 and M
# A. baumannii = test: Bacterial killing kinetics; type: cell-based, Acinetobacter baumannii; conditions: at respective MBC
# Protocol: Mid-log-phase A. baumannii (5 × 10^5 CFU/mL) bacterial cells were treated with the test candidates at appropriate bactericidal concentrations, followed by incubation at 37°C. The treated bacterial cells were plated in MHA to determine the bacterial killing rate as a function of time ([52]).
# P. aeruginosae = test: microbe, parasite or virus in culture; type: cell-based, Pseudomonas aeruginosa; conditions: for TP4-3 and meropenem combined MIC: MIC of each agent in combination
# A. baumannii biofilm = test: Biofilm rupture assay; type: cell-based, Acinetobacter baumannii; conditions: even at 4× MIC
# Protocol: (ii) Biofilm rupture assay. Fifty μL of A. baumannii bacterial strains suspension cultures (2 × 10^6 CFU/mL) were plated and incubated in a shaking incubator for 24 h. Then, the wells were washed with PBS and treated with 100 μL of peptide/drug at various concentrations. The plates were incubated for 24 h and then washed with PBS. The wells were treated with 100% methanol for 15 min, and the residual solution was washed followed by drying at room temperature. After the wells were dry, 100 μL of 0.02% crystal violet solution was added, followed by incubation for 30 min at room temperature. The wells were then washed with water and dried for an appropriate length of time. Once the wells were dry, 100 μL of 33% acetic acid was added to the wells and they were incubated at room temperature for 1 h. Absorbance was recorded at 595 nm ([55]).
# MDR A. baumannii 2088 [6] = test: Checkerboard microdilution assay (FICI); type: cell-based, Acinetobacter baumannii; conditions: for TP4-3 and meropenem combined MIC: MIC of each agent in combination
# Protocol: (§2) The FICI was measured using a standard checkerboard microdilution assay ([57]). Two-fold dilutions of antibiotics were made across the x axis, and two-fold peptide dilutions were made across the y axis. Next, bacteria were added at 5 × 10^5 CFU/well (A. baumannii), followed by incubation at 37 ± 2°C for 16 to 20 h. FIC indices were calculated according to the following equations: FICI = FIC1 + FIC2; FIC1 = (MIC12 combined)/MIC1; FIC2 = (MIC12 combined)/MIC2. The combined efficacy was estimated as follows: FICI ≤ 0.5, synergistic; 0.5 to 1, additive; 1 to 2, indifferent; ≥2, antagonistic.
# MDR A. baumannii 3618 [7] = test: Checkerboard microdilution assay (FICI); type: cell-based, Acinetobacter baumannii; conditions: for TP4-3 and meropenem combined MIC: MIC of each agent in combination
# Protocol: as §2
# MDR A. baumannii 1033 [8] = test: Checkerboard microdilution assay (FICI); type: cell-based, Acinetobacter baumannii; conditions: for TP4-3 and meropenem combined MIC: MIC of each agent in combination
# Protocol: as §2
# MDR A. baumannii 2997 [9] = test: Checkerboard microdilution assay (FICI); type: cell-based, Acinetobacter baumannii; conditions: for TP4-3 and meropenem combined MIC: MIC of each agent in combination
# Protocol: as §2
# MDR A. baumannii 2998 [10] = test: Checkerboard microdilution assay (FICI); type: cell-based, Acinetobacter baumannii; conditions: for TP4-3 and meropenem combined MIC: MIC of each agent in combination
# Protocol: as §2
# [11] = read-out: Single drug treatment MIC
smiles,measurement,setting,value
"CC[C@H](C)[C@H](NC(=O)[C@@H](NC(=O)[C@@H](N)Cc1ccccc1)[C@@H](C)CC)C(=O)N[C@]1(C)CCCC=CCCC[C@](C)(C(=O)NCC(=O)N[C@@H](CC(C)C)C(=O)N[C@@H](Cc2ccccc2)C(=O)N[C@@H](CCCCN)C(=O)N[C@@H](CCCCN)C(=O)N[C@@H](CCCCN)C(=O)N[C@@H](C)C(=O)NCC(=O)N[C@@H](C)C(=O)N[C@]2(C)CCCC=CCCC[C@](C)(C(=O)N[C@H](C(=O)N[C@@H](CCCCN)C(=O)N[C@@H](CCCCN)C(=O)O)[C@@H](C)CC)NC(=O)[C@H](CCCCN)NC(=O)[C@H](CCCCN)NC(=O)[C@H](CCCCN)NC2=O)NC(=O)[C@H](CO)NC(=O)[C@H](CCCCN)NC(=O)[C@H](CCCCN)NC1=O [TP4-3] (H-FII[R5]KKS[R5]GLFKKKAGA[R5]KKK[R5]IKK-OH; staple 4-8, 18-22; N-terminus and C-terminus assumed)",MBC,MDR A. baumannii 1702,3.13 to 6.25 µM
same,MIC,MDR A. baumannii 1702,3.13 to 6.25 µM
same,MBC,MDR A. baumannii 2982,6.25 µM
same,MIC,MDR A. baumannii 2982,6.25 µM
same,MBC,MDR A. baumannii 921,6.25 µM
same,MIC,MDR A. baumannii 921,6.25 µM
same,MBC,MDR A. baumannii 2962,12.5 µM
same,MIC,MDR A. baumannii 2962,6.25 µM
same,MBC,MDR A. baumannii 1019,12.5 µM
same,MIC,MDR A. baumannii 1019,12.5 µM
same,MIC,MDR A. baumannii 1607,6.25 µM
same,MBC,MDR A. baumannii 1607; read-out: MBC,12.5 µM
same,MBC,MDR A. baumannii 2088 [1],6.25 µM
same,MBC,MDR A. baumannii 14B0091,3.13 µM
same,MIC,MDR A. baumannii 14B0091,3.13 µM
same,MBC,MDR A. baumannii 3618 [2],12.5 µM
same,MBC,MDR A. baumannii 1033 [3],6.25 to 12.5 µM
same,MIC,MDR A. baumannii 1033 [3],6.25 to 12.5 µM
same,MBC,MDR A. baumannii 2997 [4],3.13 to 6.25 µM
same,MIC,MDR A. baumannii 2997 [4],3.13 to 6.25 µM
same,MBC,MDR A. baumannii 2998 [5],12.5 µM
same,TP4-3 and meropenem combined MIC,S enterica,0.39 µM
same,time to clear the entire bacterial load,A. baumannii,≤ 8 h
same,TP4-3 and meropenem combined MIC,P. aeruginosae; TP4-3 and D,6.25 µM
same,TP4-3 and meropenem combined MIC,P. aeruginosae; TP4-3 and M,0.78 µM
same,MIC,P. aeruginosae; [11],25 µM
same,mature biofilm rupture,A. baumannii biofilm,minor potential for causing biofilm rupture
same,TP4-3 and meropenem combined MIC,MDR A. baumannii 2088 [6]; TP4-3 and D,3.13 µM
same,TP4-3 and meropenem combined MIC,MDR A. baumannii 2088 [6]; TP4-3 and M,3.13 µM
same,MIC,MDR A. baumannii 2088 [6]; [11],6.25 µM
same,TP4-3 and meropenem combined MIC,MDR A. baumannii 3618 [7]; TP4-3 and D,3.13 µM
same,TP4-3 and meropenem combined MIC,MDR A. baumannii 3618 [7]; TP4-3 and M,3.13 µM
same,MIC,MDR A. baumannii 3618 [7]; [11],12.5 µM
same,TP4-3 and meropenem combined MIC,MDR A. baumannii 1033 [8]; TP4-3 and D,3.13 µM
same,TP4-3 and meropenem combined MIC,MDR A. baumannii 1033 [8]; TP4-3 and M,3.13 µM
same,MIC,MDR A. baumannii 1033 [8]; [11],12.5 µM
same,TP4-3 and meropenem combined MIC,MDR A. baumannii 2997 [9]; TP4-3 and D,3.13 µM
same,TP4-3 and meropenem combined MIC,MDR A. baumannii 2997 [9]; TP4-3 and M,3.13 µM
same,MIC,MDR A. baumannii 2997 [9]; [11],6.25 µM
same,TP4-3 and meropenem combined MIC,MDR A. baumannii 2998 [10]; TP4-3 and D,3.13 µM
same,TP4-3 and meropenem combined MIC,MDR A. baumannii 2998 [10]; TP4-3 and M,3.13 µM
same,MIC,MDR A. baumannii 2998 [10]; [11],6.25 µM
